As usually defined, the EC50 is the concentration at which the effect is half-maximal.

14 molecules from patent publication US9868766B2, “Peptides as oxytocin agonists” (Hoffmann-La Roche Inc., priority 2012, dated 2018) can be followed below.

Holding throughout (type): cell-based
Experiment [1] concerns the target T1, human Oxytocin (OTR) receptor (Homo sapiens, UniProt P30559).
T1 construct: expressed in transfected cells
T1 sequence (P30559 1-389): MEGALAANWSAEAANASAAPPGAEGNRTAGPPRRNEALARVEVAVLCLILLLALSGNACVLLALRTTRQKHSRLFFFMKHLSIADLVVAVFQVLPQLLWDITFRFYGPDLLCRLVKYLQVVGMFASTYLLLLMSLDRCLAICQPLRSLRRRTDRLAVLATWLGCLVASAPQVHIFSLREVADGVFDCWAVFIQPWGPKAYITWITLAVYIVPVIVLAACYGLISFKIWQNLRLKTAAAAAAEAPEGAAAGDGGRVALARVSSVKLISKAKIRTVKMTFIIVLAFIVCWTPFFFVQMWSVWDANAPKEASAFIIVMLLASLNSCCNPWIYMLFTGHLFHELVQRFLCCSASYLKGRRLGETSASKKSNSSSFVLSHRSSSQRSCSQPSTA
The experiment is described as follows: Calcium flux assay (FLIPR), agonist mode, CHO cells expressing human OTR. The settings on record: for EC50: CHO cells stably expressing human OTR, calcium flux, read-out: hOT EC50; for Emax: CHO, read-out: hOT efficacy (%); for Emax / hOT efficacy (%): maximum response normalized to endogenous full agonist = 100%. An excerpt:
(§1) Chines Hamster Ovary (CHO) cells were transfected with expression plasmids encoding either the human V1a, the human Oxytocin (OTR) or the humanV2 receptor, the later in combination with the chimeric Gqs5 G protein to redirect the signal to Calcium flux. Stable cells were cloned by limiting dilution to yield monoclonal cell lines expressing either human V1a, human V2+Gqs5 or human OTR receptors and selected based on functional responses detected on a fluorometric imaging plate reader (FLIPR) detecting Calcium flux in the cell after receptor activation.
On the afternoon before the assay, cells were plated at a density of 50,000 cells/well into black 96 well plates with clear bottoms to allow cell inspection and fluorescence measurements from the bottom of each well. The density of cells was sufficient to yield a confluent monolayer the next day. Hanks balanced salt solution, without phenol red, containing 20 mM HEPES (pH 7.3) and 2.5 mM probenecid (assay buffer) was prepared fresh for each experiment. Compound dilutions were made using a Beckman Biomek 2000 laboratory automation workstation, in assay buffer containing 1% DMSO. The dye-loading buffer consisted of a final concentration of 2 μM Fluo-4-AM (dissolved in DMSO and pluronic acid) in assay buffer. […] Once dye-loaded, the cells were washed thoroughly on an Embla cell washer with the assay buffer to remove any unincorporated dye. Exactly 100 μl assay buffer was left in each well.
Each 96 well plate containing dye-loaded cells was placed into the FLIPR machine and the laser intensity set to a suitable level to detect low basal fluorescence. To test compounds as agonists, 25 μl diluted compound was added to the plate 10 seconds into the fluorescent measurements and fluorescent response was recorded for 5 minutes. The fluorescence data was normalized to the endogenous full agonist dose-response set at 100% for the maximum response and 0% for the minimum. […] The concentration of agonist that produced a half-maximal response is represented by the EC50 value, the logarithm of which yielded the pEC50 value.
(Calcium flux is commonly read through the fluorescence of an indicator in the cells.)

The target of another experiment is T2, human V1a receptor (Homo sapiens, UniProt P37288).
T2 construct: expressed in transfected cells
T2 sequence (P37288 whole entry): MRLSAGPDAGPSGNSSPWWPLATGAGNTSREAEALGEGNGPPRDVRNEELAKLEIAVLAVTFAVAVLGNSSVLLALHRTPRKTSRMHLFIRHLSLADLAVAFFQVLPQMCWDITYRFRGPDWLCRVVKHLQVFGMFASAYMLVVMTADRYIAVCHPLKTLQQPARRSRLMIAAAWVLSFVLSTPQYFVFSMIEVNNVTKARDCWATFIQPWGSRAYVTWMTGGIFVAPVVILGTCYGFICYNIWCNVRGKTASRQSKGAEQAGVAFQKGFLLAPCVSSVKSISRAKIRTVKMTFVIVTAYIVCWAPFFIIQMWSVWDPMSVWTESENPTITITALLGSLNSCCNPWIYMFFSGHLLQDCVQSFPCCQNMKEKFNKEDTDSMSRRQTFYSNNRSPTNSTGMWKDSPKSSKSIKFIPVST
The experiment is described as follows: Calcium flux assay (FLIPR), agonist mode, CHO cells expressing human V1a. The settings on record: for EC50: CHO cells stably expressing human V1a, calcium flux, read-out: hV1a EC50.
Source text: as §1, with “activation. The stable cell lines were grown in F-12 K Nutrient Mixture (Kaighns Modification), containing 10% foetal bovine serum (FBS), 1% penicillin-streptomycin, 1% L-glutamate, 200 ug/ml Geneticin at 37° C. in a 10% CO2 incubator at 95% humidity.” for “activation.”
(§2) On the afternoon before the assay, cells were plated at a density of 50,000 cells/well into black 96 well plates with clear bottoms to allow cell inspection and fluorescence measurements from the bottom of each well. The density of cells was sufficient to yield a confluent monolayer the next day. Hanks balanced salt solution, without phenol red, containing 20 mM HEPES (pH 7.3) and 2.5 mM probenecid (assay buffer) was prepared fresh for each experiment. Compound dilutions were made using a Beckman Biomek 2000 laboratory automation workstation, in assay buffer containing 1% DMSO. The dye-loading buffer consisted of a final concentration of 2 μM Fluo-4-AM (dissolved in DMSO and pluronic acid) in assay buffer. The existing culture media was removed from the wells and 100 μl of the dye-loading buffer was added to each well and incubated for approximately 60 min at 37° C. in a 5% CO2 incubator at 95% humidity. Once dye-loaded, the cells were washed thoroughly on an Embla cell washer with the assay buffer to remove any unincorporated dye. Exactly 100 μl assay buffer was left in each well.
(§3) Each 96 well plate containing dye-loaded cells was placed into the FLIPR machine and the laser intensity set to a suitable level to detect low basal fluorescence. To test compounds as agonists, 25 μl diluted compound was added to the plate 10 seconds into the fluorescent measurements and fluorescent response was recorded for 5 minutes. The fluorescence data was normalized to the endogenous full agonist dose-response set at 100% for the maximum response and 0% for the minimum. Each agonist concentration-response curve was constructed using a four parameter logistic equation with Microsoft Excel XLFit as follows: Y=Minimum+((Maximum−Minimum)/(1+10^(Log EC50-X)nH)), where y is the % normalized fluorescence, minimum is the minimum y, maximum is the maximum y, log EC50 is the log10 concentration which produces 50% of the maximum induced fluorescence, x is the log10 of the concentration of the agonist compound and H is the slope of the curve (the Hill Coefficient). The maximum value gives the efficacy of the agonist test compound in percentage. The concentration of agonist that produced a half-maximal response is represented by the EC50 value, the logarithm of which yielded the pEC50 value.

The target in a further experiment is T3, human V2 receptor (Homo sapiens, UniProt P30518).
T3 construct: expressed in transfected cells
T3 sequence (P30518 whole entry): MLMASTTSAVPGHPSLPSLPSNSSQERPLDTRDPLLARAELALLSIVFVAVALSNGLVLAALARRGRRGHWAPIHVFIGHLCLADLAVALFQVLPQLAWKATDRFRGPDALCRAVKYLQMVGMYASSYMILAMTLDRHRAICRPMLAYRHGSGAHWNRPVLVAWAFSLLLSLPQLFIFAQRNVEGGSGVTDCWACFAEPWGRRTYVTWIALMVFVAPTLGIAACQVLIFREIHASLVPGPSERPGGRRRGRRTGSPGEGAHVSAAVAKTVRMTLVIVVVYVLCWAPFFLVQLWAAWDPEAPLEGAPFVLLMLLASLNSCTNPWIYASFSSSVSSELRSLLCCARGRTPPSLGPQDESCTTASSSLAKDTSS
Put plainly: Calcium flux assay (FLIPR), agonist mode, CHO cells expressing human V2 + Gqs5. The settings on record: CHO; maximum response normalized to endogenous full agonist = 100%; read-out: hV2 efficacy (%).
Source text: as §1, with “activation. The stable cell lines were grown in F-12 K Nutrient Mixture (Kaighns Modification), containing 10% foetal bovine serum (FBS), 1% penicillin-streptomycin, 1% L-glutamate, 200 ug/ml Geneticin at 37° C. in a 10% CO2 incubator at 95% humidity.” for “activation.”
as §2, §3

SMILES strings stand for the structures. Positions of bridges follow the written chain, without caps; N, C: chain ends. Non-standard residues stand in square brackets, D forms with d. Residues, ends and D or L forms follow the SMILES beside them. Phe(4-NH2) = Nc1ccc(C[C@H](N)C(=O)O)cc1; αMeL = CC(C)C[C@](C)(N)C(=O)O; Chg = N[C@H](C(=O)O)C1CCCCC1; Orn = NCCC[C@H](N)C(=O)O; Ac5c = NC1(C(=O)O)CCCC1; Aze = O=C(O)[C@@H]1CCN1; Sar = CNCC(=O)O

As for `CC[C@H](C)[C@@H]1NC(=O)[C@H](Cc2ccc(O)cc2)NC(=O)CNC(=O)CC[C@@H](C(=O)N2CC[C@H]2C(=O)N[C@@H](CC(C)C)C(=O)NCC(N)=O)NC(=O)[C@H](CC(N)=O)NC(=O)[C@H](CCC(N)=O)NC1=O` [Example 50] (GYIQNE[Aze]LG-NH2; lactam N-6), in experiment [1], the EC50 amounted to 3.6 nM and the Emax stood at 99%. The concentration for a half-maximal effect (EC50) at human V1a receptor was greater than 27000 nM.
`CC[C@H](C)[C@@H]1NC(=O)[C@H](Cc2ccc(O)cc2)NC(=O)CNC(=O)CC[C@@H](C(=O)N2CCC[C@H]2C(=O)N[C@H](CC(C)C)C(=O)NCC(N)=O)NC(=O)[C@H](CC(N)=O)NC(=O)[C@H](CCC(N)=O)NC1=O` [Example 15] (GYIQNEP[dL]G-NH2; lactam N-6): in experiment [1], the half-maximal effective concentration (EC50) stood at 52 nM and the “hOT efficacy (%)” value is recorded as 102%. In addition, the EC50 at human V1a receptor was greater than 12000 nM.
`CC[C@H](C)[C@@H]1NC(=O)[C@H](Cc2ccc(O)cc2)NC(=O)CNC(=O)CC[C@@H](C(=O)N(C)CC(=O)N[C@@](C)(CC(C)C)C(=O)NCC(N)=O)NC(=O)[C@H](CC(N)=O)NC(=O)[C@H](CCC(N)=O)NC1=O` [Example 51] (GYIQNE[Sar][αMeL]G-NH2; lactam N-6): in experiment [1], the 50% effective concentration (EC50) amounted to 13 nM and the “hOT efficacy (%)” value was 97%. Besides, at human V1a receptor, the EC50 was greater than 27000 nM.
For `CC[C@H](C)[C@@H]1NC(=O)[C@H](Cc2ccc(O)cc2)NC(=O)CNC(=O)CC[C@@H](C(=O)N2CCC[C@H]2C(=O)N[C@H](C(=O)NCC(N)=O)C(C)C)NC(=O)[C@H](CC(N)=O)NC(=O)[C@H](CCC(N)=O)NC1=O` [Example 19] (GYIQNEPVG-NH2; lactam N-6), in experiment [1], the EC50 was 1.5 nM and the Emax amounted to 122%. For the same molecule, the EC50 at human V1a receptor was found to be 127 nM. In addition, on human V1a receptor (maximum response normalized to endogenous full agonist = 100%), the “hV1a efficacy (%)” value is reported as 33%.
Consider `CC[C@H](C)[C@@H]1NC(=O)[C@H](Cc2ccc(O)cc2)NC(=O)CNC(=O)CC[C@@H](C(=O)N(C)CC(=O)N[C@@H](CCSC)C(=O)NCC(N)=O)NC(=O)[C@H](CC(N)=O)NC(=O)[C@H](CCC(N)=O)NC1=O` [Example 35] (GYIQNE[Sar]MG-NH2; lactam N-6), for which the Emax at human V2 receptor came to 104%; in experiment [1], 111%.
Consider `CC[C@H](C)[C@@H]1NC(=O)[C@H](Cc2ccc(N)cc2)NC(=O)CNC(=O)CC[C@@H](C(=O)N2CCC[C@H]2C(=O)N[C@@H](CC(C)C)C(=O)NCC(N)=O)NC(=O)[C@H](CC(N)=O)NC(=O)[C@H](CCC(N)=O)NC1=O` [Example 10] (G[Phe(4-NH2)]IQNEPLG-NH2; lactam N-6), for which the half-maximal effective concentration (EC50) in experiment [1] is 17 nM; at human V1a receptor, greater than 2700 nM. In addition, in experiment [1], the “hOT efficacy (%)” value turned out to be 91%.
The corresponding values for `CC[C@H](C)[C@@H]1NC(=O)[C@H](Cc2ccc(O)cc2)NC(=O)CNC(=O)CC[C@@H](C(=O)N2CCC[C@H]2C(=O)N[C@@H](C)C(=O)NCC(N)=O)NC(=O)[C@H](CC(N)=O)NC(=O)[C@H](CCC(N)=O)NC1=O` [Example 18] (GYIQNEPAG-NH2; lactam N-6) are 24 nM, greater than 12000 nM and 91%.
For `CC[C@H](C)[C@@H]1NC(=O)[C@H](Cc2ccc(O)cc2)NC(=O)CNC(=O)CC[C@@H](C(=O)N2CCC[C@H]2C(=O)N[C@@H](CC(C)C)C(=O)NCC(N)=O)NC(=O)[C@H](CC(N)=O)NC(=O)[C@H](CCCN)NC1=O` [Example 20] (GYI[Orn]NEPLG-NH2; lactam N-6), the EC50 is 40 nM in experiment [1] and greater than 12000 nM on human V1a receptor.
For the molecule `CC[C@H](C)[C@@H]1NC(=O)[C@H](Cc2ccc(O)cc2)NC(=O)CNC(=O)CC[C@@H](C(=O)N[C@@H](C)C(=O)N[C@@H](C)C(=O)NCC(N)=O)NC(=O)[C@H](CC(N)=O)NC(=O)[C@H](CCC(N)=O)NC1=O` [Example 16] (GYIQNEAAG-NH2; lactam N-6), in experiment [1], the EC50 was 30 nM and the “hOT efficacy (%)” value came out at 105%. For the same molecule, the EC50 on human V1a receptor was greater than 12000 nM.
The corresponding values for `CC[C@H](C)[C@@H]1NC(=O)[C@H](Cc2ccc(O)cc2)NC(=O)CNC(=O)CC[C@@H](C(=O)N[C@@H](C)C(=O)N[C@@H](CC(C)C)C(=O)NCC(N)=O)NC(=O)[C@H](CC(N)=O)NC(=O)[C@H](CCC(N)=O)NC1=O` [Example 17] (GYIQNEALG-NH2; lactam N-6) are 45 nM, 92% and greater than 12000 nM.
Turning to `CC[C@H](C)[C@@H]1NC(=O)[C@H](Cc2ccc(O)cc2)NC(=O)CNC(=O)CC[C@@H](C(=O)N2CCC[C@H]2C(=O)N[C@@H](CC(C)C)C(=O)NCC(N)=O)NC(=O)[C@H](CC(N)=O)NC(=O)[C@H](Cc2cnc[nH]2)NC1=O` [Example 9] (GYIHNEPLG-NH2; lactam N-6), in experiment [1], the concentration for a half-maximal effect (EC50) came to 118 nM and the “hOT efficacy (%)” value is 93%.
The corresponding values for `CC[C@H](C)[C@@H]1NC(=O)[C@H](Cc2ccc(O)cc2)NC(=O)CNC(=O)CC[C@@H](C(=O)N(C)CC(=O)N[C@@H](CC(C)C)C(=O)NCC(N)=O)NC(=O)[C@H](CC(N)=O)NC(=O)[C@H](C(C)C)NC1=O` [Example 55] (GYIVNE[Sar]LG-NH2; lactam N-6) are 20 nM and 104%.
The corresponding values for `CC[C@H](C)[C@@H]1NC(=O)[C@H](Cc2ccc(O)cc2)NC(=O)CNC(=O)CC[C@@H](C(=O)N(C)CC(=O)N[C@H](C(=O)NCC(N)=O)C2CCCCC2)NC(=O)[C@H](CC(N)=O)NC(=O)[C@H](CCC(N)=O)NC1=O` [Example 41] (GYIQNE[Sar][Chg]G-NH2; lactam N-6) are 69 nM and 117%.
Consider `CC[C@H](C)[C@@H]1NC(=O)[C@H](Cc2ccc(O)cc2)NC(=O)CNC(=O)CC[C@@H](C(=O)N(C)CC(=O)NC2(C(=O)NCC(N)=O)CCCC2)NC(=O)[C@H](CC(N)=O)NC(=O)[C@H](CCC(N)=O)NC1=O` [Example 48] (GYIQNE[Sar][Ac5c]G-NH2; lactam N-6), for which, in experiment [1], the EC50 is 3.6 nM and the Emax stood at 108%.
